The source of these data is ChEMBL document CHEMBL5465560, “Selectivity Literature for EUbOPEN Chemogenomic Library” (2024).

The target in experiment [1] is Phosphatidylinositol 4-kinase beta (Homo sapiens, UniProt Q9UBF8). The experiment is described as follows: Selectivity interaction (Kinase panel (KiNativ target engagement assay in Jurkat cells)) EUB0001635a PI4KB. The experiment is classed as cell-based. The settings on record: Selectivity number of off-targets 0.0, Selectivity number of targets 233.0, Source Knowledge https://www.sciencedirect.com/science/article/pii/S2451945619300674?via%3Dihub, at 1 µM.

In experiment [2] the target is D(2) dopamine receptor (Homo sapiens, UniProt P14416). The experiment is described as follows: Selectivity interaction (Panel of non-epigenetic targets (kinases, GPCRs, ion channels, and transporters, Eurofins) ) EUB0000271b DRD2. The following applies: at 1 µM.
The target in experiment [3] is Serine/threonine-protein kinase 24 (Homo sapiens) (UniProt Q9Y6E0). The following applies: at 10 µM.
Experiment [4] has as its target Mitogen-activated protein kinase 10 (Homo sapiens, UniProt P53779). The settings on record: at 10 µM.
A short description of experiment [5]: Selectivity interaction (KinomeScan (DiscoverX)) EUB0000666a CDPK1. The settings on record: at 10 µM.
In experiment [6] the target is Tyrosine-protein kinase BTK (Homo sapiens, UniProt Q06187). Briefly: Selectivity interaction (Kinome Scan (DiscoverX)) EUB0000229b BTK. The following applies: at 10 µM.
The target of experiment [7] is Mitogen-activated protein kinase kinase kinase 20 (Homo sapiens) (UniProt Q9NYL2). The experiment is described as follows: Selectivity interaction (KinomeScan (DiscoverX)) EUB0000655a MAP3K20. The settings on record: at 10 µM.
In experiment [8] the target is T1, Tyrosine-protein kinase Tec (Homo sapiens) (UniProt P42680).
T1 sequence (whole entry): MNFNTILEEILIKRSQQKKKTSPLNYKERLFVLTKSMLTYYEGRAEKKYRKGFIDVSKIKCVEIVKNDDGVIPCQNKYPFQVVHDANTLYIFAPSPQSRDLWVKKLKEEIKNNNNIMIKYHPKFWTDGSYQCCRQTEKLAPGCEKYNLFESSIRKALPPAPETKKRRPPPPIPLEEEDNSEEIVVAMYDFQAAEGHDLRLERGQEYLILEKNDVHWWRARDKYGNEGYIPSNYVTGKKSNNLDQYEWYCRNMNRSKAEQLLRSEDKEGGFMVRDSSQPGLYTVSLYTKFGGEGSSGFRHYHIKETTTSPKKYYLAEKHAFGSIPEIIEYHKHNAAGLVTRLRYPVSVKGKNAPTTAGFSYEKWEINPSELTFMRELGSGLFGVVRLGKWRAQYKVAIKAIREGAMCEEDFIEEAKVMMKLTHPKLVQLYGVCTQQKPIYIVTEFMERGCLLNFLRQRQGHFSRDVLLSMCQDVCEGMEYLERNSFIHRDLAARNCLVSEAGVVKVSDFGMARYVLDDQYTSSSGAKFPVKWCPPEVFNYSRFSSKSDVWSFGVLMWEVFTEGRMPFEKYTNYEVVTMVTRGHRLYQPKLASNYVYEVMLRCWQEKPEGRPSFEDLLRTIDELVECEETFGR
The experiment is described as follows: Selectivity interaction (KinomeScan (DiscoverX)) EUB0000655a TEC. The settings on record: at 10 µM.

In experiment [9] the target is Vascular endothelial growth factor receptor 2 (Homo sapiens, UniProt P35968). Briefly: Selectivity interaction (Kinase panel (33PanQinase(R) Activity Assay)) EUB0000877a KDR.
Experiment [10] has as its target Tyrosine-protein kinase Lyn (Homo sapiens, UniProt P07948). Briefly: Selectivity interaction (ActivX KiNativ screen (kinase selectivity in THP-1 cell lysates)) EUB0000639a LYN. The experiment is classed as subcellular. The settings on record: lysate, at 5 µM.
Experiment [11] has as its target MAP/microtubule affinity-regulating kinase 3 (Homo sapiens) (UniProt P27448). Briefly: Selectivity interaction (ActivX KiNativ screen (kinase selectivity in THP-1 cell lysates)) EUB0000639a MARK3. The format is subcellular. The following applies: lysate, at 0.04 µM.
The target in experiment [12] is T2, Membrane-associated tyrosine- and threonine-specific cdc2-inhibitory kinase (Homo sapiens) (UniProt Q99640).
T2 sequence (whole entry): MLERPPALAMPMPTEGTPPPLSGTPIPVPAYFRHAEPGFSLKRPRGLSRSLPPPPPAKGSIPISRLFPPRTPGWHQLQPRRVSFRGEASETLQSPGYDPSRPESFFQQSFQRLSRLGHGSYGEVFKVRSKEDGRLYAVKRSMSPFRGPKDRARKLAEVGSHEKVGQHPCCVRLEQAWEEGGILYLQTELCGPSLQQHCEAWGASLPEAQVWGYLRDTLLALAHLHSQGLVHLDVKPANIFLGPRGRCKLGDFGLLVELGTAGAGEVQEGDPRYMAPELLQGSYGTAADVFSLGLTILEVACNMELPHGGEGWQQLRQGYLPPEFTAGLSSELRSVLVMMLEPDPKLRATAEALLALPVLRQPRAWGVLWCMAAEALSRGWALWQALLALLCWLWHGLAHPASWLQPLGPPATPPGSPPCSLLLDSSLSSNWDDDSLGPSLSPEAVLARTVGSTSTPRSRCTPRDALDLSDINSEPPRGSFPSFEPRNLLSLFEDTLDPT
The experiment is described as follows: Selectivity interaction (KinomeScan (DiscoverX)) EUB0001049a PKMYT1. The settings on record: at 1 µM.

Experiment [13] addresses Mitogen-activated protein kinase kinase kinase 14 (Homo sapiens) (UniProt Q99558). Briefly: Selectivity interaction (KinomeScan (DiscoverX)) EUB0001049a MAP3K14. The settings on record: at 1 µM.
In experiment [14] the target is T3, Cyclin-dependent kinase-like 2 (Homo sapiens) (UniProt Q92772).
T3 sequence (whole entry): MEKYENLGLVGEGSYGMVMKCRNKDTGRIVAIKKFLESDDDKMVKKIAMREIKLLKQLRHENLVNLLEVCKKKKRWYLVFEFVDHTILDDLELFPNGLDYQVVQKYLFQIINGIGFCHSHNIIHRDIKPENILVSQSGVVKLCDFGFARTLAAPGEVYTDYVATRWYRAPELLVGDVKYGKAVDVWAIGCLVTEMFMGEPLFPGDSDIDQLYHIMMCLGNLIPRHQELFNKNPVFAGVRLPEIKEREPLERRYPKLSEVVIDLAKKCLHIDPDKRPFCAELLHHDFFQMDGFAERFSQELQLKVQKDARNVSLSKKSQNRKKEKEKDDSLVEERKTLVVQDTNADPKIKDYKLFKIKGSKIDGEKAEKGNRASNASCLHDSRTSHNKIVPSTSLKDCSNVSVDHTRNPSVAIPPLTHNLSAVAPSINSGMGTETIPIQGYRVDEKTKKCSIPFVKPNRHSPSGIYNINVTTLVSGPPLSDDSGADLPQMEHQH
The experiment is described as follows: Selectivity interaction (KINOMEscan (DiscoverX)) EUB0001868a CDKL2. The settings on record: at 1 µM.

Chain of D(2) dopamine receptor (P14416 whole entry): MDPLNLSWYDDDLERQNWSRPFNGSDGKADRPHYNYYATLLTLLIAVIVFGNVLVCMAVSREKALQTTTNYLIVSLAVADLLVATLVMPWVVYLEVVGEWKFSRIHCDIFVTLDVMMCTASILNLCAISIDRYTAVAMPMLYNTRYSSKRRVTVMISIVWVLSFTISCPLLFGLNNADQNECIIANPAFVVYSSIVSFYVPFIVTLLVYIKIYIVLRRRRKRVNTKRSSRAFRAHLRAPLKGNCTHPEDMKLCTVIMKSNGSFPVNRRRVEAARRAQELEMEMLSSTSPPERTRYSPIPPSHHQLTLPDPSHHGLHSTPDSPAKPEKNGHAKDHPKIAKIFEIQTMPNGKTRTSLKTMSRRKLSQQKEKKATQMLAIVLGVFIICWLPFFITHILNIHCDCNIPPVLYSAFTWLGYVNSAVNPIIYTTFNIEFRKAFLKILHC
Chain of Mitogen-activated protein kinase 10 (P53779 whole entry): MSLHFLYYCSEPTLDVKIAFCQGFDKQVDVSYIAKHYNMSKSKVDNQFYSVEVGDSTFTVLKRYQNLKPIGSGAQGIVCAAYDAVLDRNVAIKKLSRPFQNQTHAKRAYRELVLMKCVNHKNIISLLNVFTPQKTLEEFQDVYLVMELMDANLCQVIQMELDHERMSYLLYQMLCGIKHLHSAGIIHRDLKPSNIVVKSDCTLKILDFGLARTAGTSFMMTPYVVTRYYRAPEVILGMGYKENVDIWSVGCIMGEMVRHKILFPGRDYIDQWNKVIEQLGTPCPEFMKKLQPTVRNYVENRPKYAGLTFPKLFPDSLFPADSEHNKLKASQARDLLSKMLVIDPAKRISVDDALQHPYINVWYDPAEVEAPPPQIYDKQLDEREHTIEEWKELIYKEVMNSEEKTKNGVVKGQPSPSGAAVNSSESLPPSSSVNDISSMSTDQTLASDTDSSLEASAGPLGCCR
Chain of Phosphatidylinositol 4-kinase beta (Q9UBF8 2-816 limits assumed): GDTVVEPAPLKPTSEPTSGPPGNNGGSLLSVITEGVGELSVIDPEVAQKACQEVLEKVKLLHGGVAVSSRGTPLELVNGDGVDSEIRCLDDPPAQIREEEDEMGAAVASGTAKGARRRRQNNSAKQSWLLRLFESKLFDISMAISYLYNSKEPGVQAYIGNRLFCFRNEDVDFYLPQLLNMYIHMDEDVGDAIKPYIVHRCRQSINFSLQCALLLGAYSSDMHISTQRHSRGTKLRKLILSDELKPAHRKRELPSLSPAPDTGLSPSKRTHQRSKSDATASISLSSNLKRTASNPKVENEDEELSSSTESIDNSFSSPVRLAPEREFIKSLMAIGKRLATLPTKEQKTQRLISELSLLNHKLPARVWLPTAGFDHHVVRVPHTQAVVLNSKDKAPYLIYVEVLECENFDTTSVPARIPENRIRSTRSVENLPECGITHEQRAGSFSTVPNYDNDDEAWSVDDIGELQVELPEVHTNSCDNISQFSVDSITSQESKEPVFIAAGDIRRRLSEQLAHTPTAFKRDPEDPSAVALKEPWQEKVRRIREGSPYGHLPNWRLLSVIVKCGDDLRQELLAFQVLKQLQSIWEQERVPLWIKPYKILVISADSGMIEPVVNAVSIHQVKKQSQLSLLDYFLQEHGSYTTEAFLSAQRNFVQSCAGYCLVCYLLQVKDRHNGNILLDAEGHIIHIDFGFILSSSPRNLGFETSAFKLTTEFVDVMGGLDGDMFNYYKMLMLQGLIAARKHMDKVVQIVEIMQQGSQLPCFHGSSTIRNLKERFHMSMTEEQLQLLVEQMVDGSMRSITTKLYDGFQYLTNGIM
Chain of MAP/microtubule affinity-regulating kinase 3 (Homo sapiens) (P27448 whole entry, looked up): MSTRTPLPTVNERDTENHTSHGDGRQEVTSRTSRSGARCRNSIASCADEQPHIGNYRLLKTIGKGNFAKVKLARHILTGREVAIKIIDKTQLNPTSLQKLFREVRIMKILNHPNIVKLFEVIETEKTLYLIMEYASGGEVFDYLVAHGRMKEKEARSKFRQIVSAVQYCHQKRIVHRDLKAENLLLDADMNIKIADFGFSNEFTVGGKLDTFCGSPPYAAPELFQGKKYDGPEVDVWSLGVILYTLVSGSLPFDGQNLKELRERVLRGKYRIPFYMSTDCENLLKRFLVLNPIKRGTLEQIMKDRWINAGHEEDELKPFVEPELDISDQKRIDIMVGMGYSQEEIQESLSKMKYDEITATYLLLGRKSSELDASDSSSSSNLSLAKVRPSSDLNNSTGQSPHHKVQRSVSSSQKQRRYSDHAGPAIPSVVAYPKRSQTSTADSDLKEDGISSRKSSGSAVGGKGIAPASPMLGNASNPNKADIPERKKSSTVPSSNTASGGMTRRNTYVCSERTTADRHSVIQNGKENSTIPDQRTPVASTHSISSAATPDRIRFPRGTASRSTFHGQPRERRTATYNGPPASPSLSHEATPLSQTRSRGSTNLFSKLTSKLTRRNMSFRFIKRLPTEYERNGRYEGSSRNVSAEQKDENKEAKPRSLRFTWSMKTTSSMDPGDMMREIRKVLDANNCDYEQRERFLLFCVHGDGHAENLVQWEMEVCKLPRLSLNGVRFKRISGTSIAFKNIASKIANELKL
Chain of Vascular endothelial growth factor receptor 2 (P35968 whole entry): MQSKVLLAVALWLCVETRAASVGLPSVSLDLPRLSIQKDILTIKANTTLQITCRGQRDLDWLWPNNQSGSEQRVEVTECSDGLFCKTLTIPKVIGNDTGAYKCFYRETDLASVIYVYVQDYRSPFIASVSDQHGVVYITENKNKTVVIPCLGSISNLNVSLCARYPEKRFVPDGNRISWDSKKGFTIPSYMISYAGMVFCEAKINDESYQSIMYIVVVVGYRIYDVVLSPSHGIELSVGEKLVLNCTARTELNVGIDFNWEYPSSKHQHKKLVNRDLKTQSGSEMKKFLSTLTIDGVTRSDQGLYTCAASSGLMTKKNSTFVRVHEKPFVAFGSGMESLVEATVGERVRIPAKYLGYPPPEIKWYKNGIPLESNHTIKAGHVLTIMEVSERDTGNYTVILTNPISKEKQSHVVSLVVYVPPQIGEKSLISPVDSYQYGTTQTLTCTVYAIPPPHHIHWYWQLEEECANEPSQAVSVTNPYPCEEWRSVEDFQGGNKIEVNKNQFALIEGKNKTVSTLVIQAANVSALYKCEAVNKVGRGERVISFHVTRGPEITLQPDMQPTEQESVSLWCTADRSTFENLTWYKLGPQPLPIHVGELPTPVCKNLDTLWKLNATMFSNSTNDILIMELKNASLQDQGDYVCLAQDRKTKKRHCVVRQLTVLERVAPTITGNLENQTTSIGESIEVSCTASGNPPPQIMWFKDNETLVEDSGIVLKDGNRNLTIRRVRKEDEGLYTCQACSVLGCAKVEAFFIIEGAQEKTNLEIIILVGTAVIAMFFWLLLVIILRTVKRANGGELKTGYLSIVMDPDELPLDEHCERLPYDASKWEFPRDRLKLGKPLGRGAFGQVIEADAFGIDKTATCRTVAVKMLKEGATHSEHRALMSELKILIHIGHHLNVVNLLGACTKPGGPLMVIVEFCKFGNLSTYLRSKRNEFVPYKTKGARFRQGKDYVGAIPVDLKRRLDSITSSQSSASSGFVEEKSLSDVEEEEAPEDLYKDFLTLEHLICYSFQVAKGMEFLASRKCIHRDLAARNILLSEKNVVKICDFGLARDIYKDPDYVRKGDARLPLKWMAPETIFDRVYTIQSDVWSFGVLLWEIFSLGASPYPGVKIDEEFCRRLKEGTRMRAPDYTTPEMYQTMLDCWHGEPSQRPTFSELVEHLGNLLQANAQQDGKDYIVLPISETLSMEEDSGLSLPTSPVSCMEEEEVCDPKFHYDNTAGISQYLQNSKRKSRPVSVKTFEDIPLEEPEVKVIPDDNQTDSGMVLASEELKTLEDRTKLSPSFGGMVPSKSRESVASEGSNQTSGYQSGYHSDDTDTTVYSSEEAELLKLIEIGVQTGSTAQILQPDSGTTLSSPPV
Chain of Serine/threonine-protein kinase 24 (Homo sapiens) (Q9Y6E0 whole entry, looked up): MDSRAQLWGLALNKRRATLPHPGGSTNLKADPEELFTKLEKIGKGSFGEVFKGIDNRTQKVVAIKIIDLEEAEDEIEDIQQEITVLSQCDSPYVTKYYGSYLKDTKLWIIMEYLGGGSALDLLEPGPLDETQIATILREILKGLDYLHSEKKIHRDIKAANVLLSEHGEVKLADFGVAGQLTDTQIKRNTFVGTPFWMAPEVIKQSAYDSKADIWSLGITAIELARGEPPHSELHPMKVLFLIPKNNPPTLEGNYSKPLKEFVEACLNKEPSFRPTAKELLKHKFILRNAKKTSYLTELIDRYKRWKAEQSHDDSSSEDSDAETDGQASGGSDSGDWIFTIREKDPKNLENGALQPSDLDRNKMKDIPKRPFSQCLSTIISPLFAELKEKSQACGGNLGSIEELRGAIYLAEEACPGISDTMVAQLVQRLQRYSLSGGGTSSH
Chain of Tyrosine-protein kinase Lyn (P07948 2-512 limits assumed): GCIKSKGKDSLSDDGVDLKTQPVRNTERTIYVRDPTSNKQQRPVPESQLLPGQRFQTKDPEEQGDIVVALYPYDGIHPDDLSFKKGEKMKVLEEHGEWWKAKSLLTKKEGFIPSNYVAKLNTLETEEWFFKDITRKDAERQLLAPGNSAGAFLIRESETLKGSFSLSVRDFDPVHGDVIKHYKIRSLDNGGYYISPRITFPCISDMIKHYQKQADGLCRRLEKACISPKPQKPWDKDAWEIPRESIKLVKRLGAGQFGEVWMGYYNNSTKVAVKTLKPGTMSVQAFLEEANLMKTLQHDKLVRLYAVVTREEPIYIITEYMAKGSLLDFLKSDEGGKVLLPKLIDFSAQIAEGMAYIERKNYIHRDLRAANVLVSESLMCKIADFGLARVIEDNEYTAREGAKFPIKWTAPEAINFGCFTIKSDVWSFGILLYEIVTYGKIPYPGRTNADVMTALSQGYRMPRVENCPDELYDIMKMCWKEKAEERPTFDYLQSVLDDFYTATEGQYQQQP

With `C=CC(=O)Nc1ccc(C(=O)Nc2[nH]nc3c2CN(C(=O)N[C@H](CN(C)C)c2ccccc2)C3(C)C)cc1`, the % of engagement in [1] was -4.1%.

Regarding `Cc1cc(C)cc([C@@H]2c3cc(C)ccc3NC(=O)CN2C(=O)c2ccc(Br)s2)c1`, the % of inhibition in experiment [2] was -1%.

Consider `Cc1cc([C@@H](C)Nc2ccccc2C(=O)O)c2nc(N3CCOCC3)cc(=O)n2c1` [AZD-6482], for which the figures for the % of control in experiment [3] and in experiment [4] were 100% and 82%, respectively.

In [5], `O=C(NOC[C@H](O)CO)c1ccc(F)c(F)c1Nc1ccc(I)cc1F` showed a % of control of 78%.

Compound `COc1cc(N(C)c2ccnc3ccc(C(F)(F)F)cc23)cc(OC)c1OC` registered a % binding in experiment [6] of 100%.

On to `CN(C)CCOc1ccc(-c2nc(-c3ccncc3)c(-c3ccc4c(c3)CC/C4=N\O)[nH]2)cc1`, for which the % of control in experiment [7] amounted to 84%; in experiment [8] it was 91%.

`CCC(=O)N1CC[C@H](Nc2ncnc3c2CN(c2cnc(OC)c(C(F)(F)F)c2)CC3)C1` [LENIOLISIB] displayed an IC50 in experiment [9] greater than 10 µM.

With `CC[C@@H]1[C@H](F)C(=O)N[C@@H]1COc1nccc2cc(C(N)=O)c(OC)cc12` [ZIMLOVISERTIB], the values for the % of inhibition in experiment [10] and in experiment [11] were -9.2% and 9.1%, respectively.

As to `COc1cc(Nc2nc(C)cc(-c3cnn4nc(OC)ccc34)n2)cc(C(F)(F)F)c1`, the % of control in experiment [12] was 97%; in experiment [13] it was 98%.

With `Cc1cc(-c2ccnc(Nc3cnn(C)c3)n2)ccc1CNC(=O)N1CC(OC(C)C)C1`, the % of control in experiment [14] came to 15%.
